Assay results reported in patent US12459931B2, “Benzothiophene derivative regulator, preparation method therefor and use thereof” (Shanghai Hansoh Biomedical Co., Ltd., priority 2019, dated 2025).
Read-outs that look alike come from different tables or passages of the source.

Columns and labels:
5-HT2A receptor [1] = biological target: T1, 5-HT2A receptor (Homo sapiens (Human), UniProt P28223); experiment: Effect on calcium ion mobility in cells stably expressing 5-HT2A receptors (Flp-In-CHO-5HT2A, FLIPR); format: cell-based; settings: Flp-In-CHO-5HT2A cells, 5HT as agonist
Protocol: To determine the inhibitory effect of the compounds on 5-HT2A receptor.
Probenecid and BSA were added fresh on the day of the experiment.
The calcium signal values were determined by FLIPR. […] The percent inhibition rate and ten-point concentration data were fitted to the parametric nonlinear logistic equation by using GraphPad prism to calculate the IC50 values of the compound.

5-HT2A receptor [2] = biological target: T1, 5-HT2A receptor; experiment: Radioligand-receptor binding assay, 5-HT2A receptor ([3H]-Ketanserin); settings: [3H]-Ketanserin 2 nM, human 5-HT2A receptor membrane; read-out: 5HT-2A binding activity IC50
Protocol: Determination of the Binding Ability of the Compounds of the Present Invention to 5-HT2A Receptor
The objective of this test example is to determine the affinity of the compounds for 5-HT2A receptor.
Assay buffer: 50 mM Tris-HCl pH 7.4, 4 mM CaCl2); wash solution: 50 mM Tris-HCl pH 7.4, stored at 4° C.; 0.5% PEI solution: 0.5 g PEI dissolve in 100 mL ddH2O, 4° C. storage of spare.
5 μL of the test compounds (0.005 nM to 100 nM, 10 concentrations in total) and 100 μL of buffer were added to a 96-well assay plate. 1.5 μL of cell membrane and 300 L of buffer were added to each well. The plate was shaken at 600 rpm for 5 min. A mixed solution of 100 μL of buffer and [^3H]-Ketanserin (the final concentration was 2 nM) was added to each well. The plate was shaken at 600 rpm for 5 min, and incubated at 27° C. for 30 min. The […]-96 GF/B filter plate pre-incubated with 0.5% PEI for 1 h was washed twice with the buffer (1 mL/well). The cell membrane suspension was added to the […]-96 GF/B filter plate, washed 4 times, and incubated at 55° C. for 10 min. 40 μL of ULTIMA GOLD was added to each well, and liquid scintillation counting was carried out.
(§1) The CPM (Counts per minute) values were determined by TopCount. […] The 10 concentrations of the compound were from 100 nM to 0.005 nM after 3-fold dilution of the reaction system. The percent inhibition rate and ten-point concentration data were fitted to the parametric nonlinear logistic equation by using GraphPad prism to calculate the IC50 values of the compound.

[3] = biological target: Human Dopamine D3 Receptor (Homo sapiens (Human), UniProt P35462); experiment: Radioligand-receptor binding assay, dopamine D3 receptor ([3H]-methylspiperone); settings: [3H]-methylspiperone 0.5 nM, human D3 receptor membrane
Protocol: Determination of the Binding Ability of the Compounds of the Present Invention to Dopamine D3 Receptor
The objective of this test example is to determine the affinity of the compounds for dopamine D3 receptor.
Assay buffer: 50 mM Tris-HCl pH 7.4, 10 mM MgCl2; wash solution: 50 mM Tris-HCl pH 7.4, stored at 4° C.; 0.5% PEI solution: 0.5 g PEI dissolve in 100 mL ddH2O, 4° C. storage of spare.
5 μL of the test compounds (0.005 nM to 100 nM, 10 concentrations in total) and 100 μL of buffer were added to a 96-well assay plate. 1 μL of cell membrane and 300 μL of buffer were added to each well, and the plate was shaken at 600 rpm for 5 min. A mixed solution of 100 μL of buffer and [^3H]-methylspiperone (the final concentration was 0.5 nM) was added to each well. The plate was shaken at 600 rpm for 5 min, and incubated at 27° C. for 30 min. The […]-96 GF/B filter plate pre-incubated with 0.5% PEI for 1 h was washed twice with the buffer (1 mL/well). The cell membrane suspension was added to the […]-96 GF/B filter plate, washed 4 times, and incubated at 55° C. for 10 min. 40 μL of ULTIMA GOLD was added to each well, and liquid scintillation counting was carried out.
as §1

[4] = Pharmacokinetic assay in Balb/c mice (plasma and brain tissue); format: in vivo; settings: p.o. 5 mg/kg; for AUC(0-t) / AUC(0-inf) / Cmax / MRT / half-life: male, Balb/c, mouse, po; for AUC(0-t): read-out: Area under curve AUC0-t; for AUC(0-inf): read-out: Area under curve AUC0-∞; for Cmax: read-out: Plasma concentration Cmax; for MRT: read-out: Average residence time MRT; for half-life: read-out: Half life t1/2 (converted)
Protocol: III. Pharmacokinetic Assay in Balb/c Mice
Balb/c mice were used as test animals. The pharmacokinetic behavior of the compounds of Examples of the present invention was studied in mouse body (plasma and brain tissue) by orally administration at a dose of 5 mg/kg.
Male Balb/c mice (12 mice per group), purchased from Shanghai Jiesijie Laboratory Animal Co., LTD, with Certificate No.: SCXK (Shanghai) 2013-0006 N0.311620400001794. • 2.3 Formulation of the preparation: […]
The test compound was dissolved in 0.5% CMC-Na (1% Tween80) by sonication to formulate a clear solution or homogeneous suspension. • 2.4 Administration:
After an overnight fast, male Balb/c mice (12 mice per group) were administered p.o. with the test compound at a dose of 5 mg/kg and a volume of 10 mL/kg. • 2.5 Sample collection:
0.2 mL of blood was taken from the heart of the mouse before administration and at 1, 2, 4, 8 and 24 hours after administration, and the mice were sacrificed with CO2. The samples were stored in EDTA-K2 tubes, and centrifuged for 6 minutes at 4° C., 6000 rpm to separate the plasma. The plasma samples were stored at −80° C. Whole brain tissue was taken out, weighed, placed in a 2 mL centrifuge tube, and stored at −80° C. • 2.6 Sample process:
1) 160 μL of acetonitrile was added to 40 μL of the plasma sample for precipitation, and then the mixture was centrifuged at 3500×g for 5 to 20 minutes.
2) 90 μL of acetonitrile containing internal standard (100 ng/mL) was added to 30 μL of the plasma and brain homogenate sample for precipitation, and then the mixture was centrifuged at 13000 rpm for 8 minutes.
3) 70 μL of water was added to 70 μL of the treated supernatant and mixed by vortex for 10 minutes. 20 μL of the solution was taken to analyze the concentration of the test compound by LC/MS/MS. LC/MS/MS analytical instrument: AB Sciex API 4000 Qtrap. • 2.7 Liquid chromatography analysis: • Liquid chromatography condition: Shimadzu LC-20AD pump • Chromatographic column: Agilent ZORBAX XDB-C18 (50×2.1 mm, 3.5 μm); Mobile phase: Eluent A was 0.1% formic acid in water, and Eluent B was acetonitrile • Flow rate: 0.4 mL/min • Elution time: 0-4.0 minutes the eluent is as follows:
The main parameters of pharmacokinetics were calculated by WinNonlin 6.1.

D3 receptor = D3 receptor (Homo sapiens (Human), UniProt P35462); experiment: Effect on cAMP content in cells stably expressing D3 receptors (CHO-D3); format: cell-based; settings: forskolin stimulated, activation
Protocol: To determine the activation effect of the compounds on D3 receptor.
3. The experimental buffer (1*HBSS, 0.1% BSA, 20 mM HEPES and 500 μM IBMX) was prepared. The compound was diluted with the buffer. 2.5 μL of the compound solution was added to each well, and the plate was incubated at 37° C. for 10 minutes. The forskolin was diluted to 8 μM (8*) with the experimental buffer. […] The reaction plate was centrifuged at 200 g for 30 s at room temperature, and left to stand at 25° C. for 1 h. Data was collected using Envision.

T1 sequence (P28223 whole entry): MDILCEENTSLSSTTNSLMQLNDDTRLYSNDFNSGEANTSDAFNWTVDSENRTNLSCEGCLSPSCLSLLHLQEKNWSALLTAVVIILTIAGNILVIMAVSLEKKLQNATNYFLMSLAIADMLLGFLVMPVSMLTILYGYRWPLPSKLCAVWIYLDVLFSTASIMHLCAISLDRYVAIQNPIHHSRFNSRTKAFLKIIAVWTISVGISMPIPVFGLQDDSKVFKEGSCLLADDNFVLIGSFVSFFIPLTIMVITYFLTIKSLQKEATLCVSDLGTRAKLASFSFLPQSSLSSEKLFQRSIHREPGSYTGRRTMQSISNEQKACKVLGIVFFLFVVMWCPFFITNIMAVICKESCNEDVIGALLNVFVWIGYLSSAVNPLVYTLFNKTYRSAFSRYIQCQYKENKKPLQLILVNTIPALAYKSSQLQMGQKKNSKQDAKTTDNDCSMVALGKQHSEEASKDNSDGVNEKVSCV
Chain of Human Dopamine D3 Receptor (P35462 whole entry): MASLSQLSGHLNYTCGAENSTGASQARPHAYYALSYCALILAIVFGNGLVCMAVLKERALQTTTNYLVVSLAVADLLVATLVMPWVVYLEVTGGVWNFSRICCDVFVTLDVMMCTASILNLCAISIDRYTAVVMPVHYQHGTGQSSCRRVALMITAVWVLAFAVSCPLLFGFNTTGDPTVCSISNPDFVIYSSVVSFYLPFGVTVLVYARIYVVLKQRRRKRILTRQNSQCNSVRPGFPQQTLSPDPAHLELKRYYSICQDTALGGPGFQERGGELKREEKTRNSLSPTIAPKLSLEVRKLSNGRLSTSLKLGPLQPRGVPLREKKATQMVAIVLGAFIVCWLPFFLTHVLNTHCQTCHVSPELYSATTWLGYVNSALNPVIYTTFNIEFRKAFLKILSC
Chain of D3 receptor (P35462 whole entry): as above

O=C(N[C@H]1CC[C@](F)(CCN2CCN(c3cccc4sccc34)CC2)CC1)c1ccco1 [Example 40, N-(Cis-4-(2-(4-(benzo[b]thiophen-4-yl)piperazin-1-yl)ethyl)-4-fluorocyclohexyl)furan-2-carboxamide]
IC50 (5-HT2A receptor [1]): 3.16 nM | IC50 (5-HT2A receptor [2]): 0.43 nM | IC50 [3]: 0.83 nM | Peak time tmax ([4]; Brain): 1 h | Peak time tmax ([4]; Plasma): 6 h | AUC(0-t) ([4]; Brain): 4590 ng·h/mL | AUC(0-inf) ([4]; Brain): 4960 ng·h/mL | Cmax ([4]; Brain): 328 ng/mL | AUC(0-t) ([4]; Plasma): 3070 ng·h/mL | AUC(0-inf) ([4]; Plasma): 3390 ng·h/mL | MRT ([4]; Plasma): 9.21 h | half-life ([4]; Plasma): 7.3 h | Cmax ([4]; Plasma): 192 ng/mL

O=C(N[C@H]1CC[C@H](CCN2CCN(c3cccc4sccc34)CC2)CC1)c1ncco1 [Example 43, N-(Trans-4-(2-(4-(benzo[b]thiophen-4-yl)piperazin-1-yl)ethyl)cyclohexyl)oxazole-2-carboxamide]
EC50 (D3 receptor): 0.1 nM | IC50 (5-HT2A receptor [2]): 0.37 nM | IC50 [3]: 0.43 nM | Peak time tmax ([4]; Brain): 1 h | Peak time tmax ([4]; Plasma): 1 h | AUC(0-t) ([4]; Brain): 14100 ng·h/mL | AUC(0-inf) ([4]; Brain): 16500 ng·h/mL | Cmax ([4]; Brain): 1390 ng/mL | AUC(0-t) ([4]; Plasma): 4140 ng·h/mL | AUC(0-inf) ([4]; Plasma): 4860 ng·h/mL | MRT ([4]; Plasma): 11.8 h | half-life ([4]; Plasma): 8.9 h | Cmax ([4]; Plasma): 403 ng/mL
